The values below come from patent US20060276498A1 (Wyeth, priority 2005, published 2006).

For one assay, the target named is T1, human Cot/Tpl2 kinase (Homo sapiens, UniProt P41279).
T1 construct: human Cot/Tpl2 kinase construct encoding residues 30-398; 6His (N); made in house; host or cells: Sf9 insect cells (baculovirus system, BD Biosciences)
T1 sequence (P41279 30-398): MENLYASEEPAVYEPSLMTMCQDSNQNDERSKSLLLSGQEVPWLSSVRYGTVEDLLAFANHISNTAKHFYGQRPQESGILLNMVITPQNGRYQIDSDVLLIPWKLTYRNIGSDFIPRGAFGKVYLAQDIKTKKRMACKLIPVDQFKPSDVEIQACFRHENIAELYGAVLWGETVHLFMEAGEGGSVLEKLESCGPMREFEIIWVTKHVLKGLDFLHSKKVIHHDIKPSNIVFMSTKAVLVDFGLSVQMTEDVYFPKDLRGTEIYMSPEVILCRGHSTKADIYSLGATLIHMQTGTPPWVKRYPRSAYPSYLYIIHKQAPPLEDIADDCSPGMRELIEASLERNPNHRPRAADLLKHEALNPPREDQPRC
Put plainly: Tpl2/Cot kinase assay, GST-MEK1 phosphorylation detected by ELISA (DELFIA Eu). Format: biochemical. To be noted: Table 1; 0.4 nM Tpl2, 35 nM GST-MEK1, 50 uM ATP, 1 h at 30° C. Here is the method:
Sf9 cells expressing the kinase were lysed in 50 mM NaPhosphate pH=8; 300 mM NaCl; 5 mM imidazole; 0.1 mM EGTA; 25 mM beta-glycerophosphate; 1% TX-100, 1% glycerol; 6 mM beta-mercaptoethanol and protease inhibitors. The lysate was clarified by centrifugation and was loaded onto a Ni-Sepharose column. The column was washed with 50 mM NaPhosphate pH=8; 300 mM NaCl; 15 mM imidazole; 1% glycerol; and 6 mM beta-mercaptoethanol. His-Tpl2 was eluted with 50 mM NaPhosphate pH=8; 300 mM NaCl; 250 mM imidazole; 1% glycerol; and 6 mM beta-mercaptoethanol. The eluted protein was further purified by size exclusion chromatography. Fractions corresponding to monomeric Tpl2 were then used in the assay.
Tpl2/Cot activity was directly assayed using GST-MEK1 as a substrate. GST-MEK1 phosphorylation on serine residues 217 and 221 was detected by ELISA. 0.4 nM Tpl2 was incubated with 35 nM GST-MEK1 in a kinase reaction buffer containing 20 mM MOPS pH=7.2; 50 uM ATP; 20 mM MgCl2; 1 mM DTT; 25 mM β-glycerophosphate; 5 mM EGTA; and 1 mM sodium orthovanadate for 1 h at 30° C. The compounds of the inventions solubilized in 100% DMSO were pre-diluted in assay buffer so that the final concentration of DMSO in the reaction was 1%. The kinase reaction was carried out in 100 ul volume on 96 well plates. The kinase reaction was then stopped with the addition of 100 mM EDTA. […] After a 1 hour incubation at room temperature, the detection plate was washed 4 times with TBST (TBS+0.05% Tween 20) and then incubated for another hour at room temperature with anti phospho-MEK1 antibody (Cell Signaling) 1:1000 in 10 mM MOPS 7.5; 150 mM NaCl; 0.05% Tween 20; 0.1% Gelatin; 0.02% NaN3; and 1% BSA. The detection plate was washed again and incubated for 30 min with DELFIA Europium (Eu) labeled goat anti-rabbit IgG (Perkin-Elmer), 1:4000 in the same buffer used for the primary incubation. After a final wash, Eu detection solution was added to each well and the Eu signal was measured in a Wallac Victor^2 Multilabel Counter. IC50 calculations were preformed using the XLfit software package (IDBS, Guildford, UK).
A general note: An ELISA detects its analyte on a solid surface through an enzyme-linked reagent.
As for `N#Cc1cnc2cnc(NCCN3CCOCC3)cc2c1Nc1cccc(-c2ccco2)c1` [Example 80, 4-(3-(furan-2-yl)phenylamino)-6-(2-morpholinoethylamino)-1,7-naphthyridine-3-carbonitrile], the concentration for half-maximal inhibition (IC50) was > 10 µM.

Consider `N#Cc1cnc2cnc(NCCN3CCOCC3)cc2c1Nc1cccc([N+](=O)[O-])c1` [Example 81, 6-(2-morpholinoethylamino)-4-(3-nitrophenylamino)-1,7-naphthyridine-3-carbonitrile], for which the IC50 was determined as 0.27 µM.

On to `N#Cc1cnc2cnc(NCCN3CCOCC3)cc2c1Nc1cccc(N)c1` [Example 82, 4-(3-aminophenylamino)-6-(2-morpholinoethylamino)-1,7-naphthyridine-3-carbonitrile], for which the IC50 is > 10 µM.

For the molecule `COC(=O)c1cccc(Nc2c(C#N)cnc3cnc(NCCN4CCOCC4)cc23)c1` [Example 83, Methyl 3-(3-cyano-6-(2-morpholinoethylamino)-1,7-naphthyridin-4-ylamino)benzoate], the half-inhibitory concentration (IC50) is > 10 µM.

`N#Cc1cnc2cnc(NCCN3CCOCC3)cc2c1Nc1cccc(C(=O)O)c1` [Example 84, 3-(3-cyano-6-(2-morpholinoethylamino)-1,7-naphthyridin-4-ylamino)benzoic acid]: the concentration for half-maximal inhibition (IC50) is > 10 µM.

As to `CS(=O)(=O)Nc1cccc(Nc2c(C#N)cnc3cnc(NCCN4CCOCC4)cc23)c1` [Example 85, N-(3-(3-cyano-6-(2-morpholinoethylamino)-1,7-naphthyridin-4-ylamino)phenyl)methanesulfonamide], the IC50 is > 10 µM.

Regarding `N#Cc1cnc2cnc(NCCN3CCOCC3)cc2c1Nc1cccc(C(N)=O)c1` [Example 86, 3-(3-cyano-6-(2-morpholinoethylamino)-1,7-naphthyridin-4-ylamino)benzamide], the half-inhibitory concentration (IC50) was > 10 µM.

`N#Cc1cnc2cnc(NCCN3CCOCC3)cc2c1Nc1ccc(-c2ccccc2)cc1` [Example 87, 4-(1,1′-biphenyl-4-ylamino)-6-[(2-morpholin-4-ylethyl)amino]-1,7-naphthyridine-3-carbonitrile]: the IC50 was > 40 µM.

In the case of `N#Cc1cnc2cnc(NCCN3CCOCC3)cc2c1Nc1ccc([N+](=O)[O-])cc1` [Example 88, 6-(2-morpholinoethylamino)-4-(4-nitrophenylamino)-1,7-naphthyridine-3-carbonitrile], the 50% inhibitory concentration (IC50) came out at 7 µM.

Regarding `CN(c1ccc(F)c(Cl)c1)c1c(C#N)cnc2cnc(NCCN3CCOCC3)cc12` [Example 89, 4-((3-chloro-4-fluorophenyl)(methyl)amino)-6-(2-morpholinoethylamino)-1,7-naphthyridine-3-carbonitrile], the 50% inhibitory concentration (IC50) is > 40 µM.

For `CCC(C)(C)Nc1cc2c(Nc3ccc(F)c(Cl)c3)c(C#N)cnc2cn1` [Example 91, 4-(3-chloro-4-fluorophenylamino)-6-(tert-pentylamino)-1,7-naphthyridine-3-carbonitrile], the IC50 was > 40 µM.

In the case of `N#Cc1cnc2cnc(Nc3ccc(F)c(Cl)c3)cc2c1NC1CCCC1` [Example 92, 6-(3-chloro-4-fluorophenylamino)-4-(cyclopentylamino)-1,7-naphthyridine-3-carbonitrile], the IC50 was 8 µM.

Take `N#Cc1cnc2cnc(NC3CCCC3)cc2c1Nc1ccc(F)c(Cl)c1` [Example 94, 4-(3-Chloro-4-fluoro-phenylamino)-6-cyclopentylamino-[1,7]naphthyridine-3-carbonitrile]: it took 7.6 µM to reach half-maximal inhibition (IC50).

For the molecule `N#Cc1cnc2cnc(NCc3cccnc3)cc2c1Nc1ccccc1` [Example 95, 4-Phenylamino-6-[(pyridin-3-ylmethyl)-amino]-[1,7]naphthyridine-3-carbonitrile], the IC50 worked out at 0.33 µM.

Still in this assay, the particulars now being: Table 2; additional representative compounds.
Molecule `COc1ccc(CNc2cc3c(Nc4ccc(F)c(Cl)c4)c(C#N)cnc3cn2)cc1` [Example 96, 4-[(3-chloro-4-fluorophenyl)amino]-6-[(4-methoxybenzyl)amino]-1,7-naphthyridine-3-carbonitrile] had an IC50 of 0.2 µM.

On to `CC(C)c1cccc(Nc2c(C#N)cnc3cnc(F)cc23)c1` [Example 97, 6-fluoro-4-[(3-isopropylphenyl)amino]-1,7-naphthyridine-3-carbonitrile], for which the 50% inhibitory concentration (IC50) is > 40 µM.

For the molecule `N#Cc1cnc2cnc(F)cc2c1NCc1ccc(F)c(Cl)c1` [Example 98, 4-[(3-chloro-4-fluorobenzyl)amino]-6-fluoro-1,7-naphthyridine-3-carbonitrile], the IC50 was > 40 µM.

Molecule `N#Cc1cnc2cnc(F)cc2c1Nc1ccc(Oc2ccccc2)cc1` [Example 99, 6-Fluoro-4-(4-phenoxy-phenylamino)-[1,7]naphthyridine-3-carbonitrile] yielded an IC50 of 20 µM.

For `N#Cc1cnc2cnc(F)cc2c1Nc1ccc(C(F)(F)F)cc1` [Example 100, 6-fluoro-4-{[4-(trifluoromethyl)phenyl]amino}-1,7-naphthyridine-3-carbonitrile], the half-maximal inhibitory concentration (IC50) is > 40 µM.

With `CC(C)c1ccc(Nc2c(C#N)cnc3cnc(F)cc23)cc1` [Example 101, 6-fluoro-4-[(4-isopropylphenyl)amino]-1,7-naphthyridine-3-carbonitrile], the half-maximal inhibitory concentration (IC50) was > 40 µM.

Regarding `N#Cc1cnc2cnc(F)cc2c1Nc1ccc2[nH]ccc2c1` [Example 102, 6-fluoro-4-(1H-indol-5-ylamino)-1,7-naphthyridine-3-carbonitrile], the IC50 is > 40 µM.

`N#Cc1cnc2cnc(F)cc2c1Nc1cccc(I)c1` [Example 104, 6-fluoro-4-[(3-iodophenyl)amino]-1,7-naphthyridine-3-carbonitrile]: the IC50 was > 40 µM.

`N#Cc1cnc2cnc(F)cc2c1Nc1cccc([N+](=O)[O-])c1` [Example 105, 6-fluoro-4-[(3-nitrophenyl)amino]-1,7-naphthyridine-3-carbonitrile]: the half-maximal inhibitory concentration (IC50) was > 10 µM.

Regarding `N#Cc1cnc2cnc(F)cc2c1Nc1ccc(Cc2ccccc2)cc1` [Example 106, 4-[(4-benzylphenyl)amino]-6-fluoro-1,7-naphthyridine-3-carbonitrile], the IC50 came to 0.3 µM.

`CN(c1ccc(F)c(Cl)c1)c1c(C#N)cnc2cnc(F)cc12` [Example 107, 4-[(3-chloro-4-fluorophenyl)(methyl)amino]-6-fluoro-1,7-naphthyridine-3-carbonitrile]: the IC50 was > 10 µM.

On to `CN(C)CCNc1cc2c(Nc3ccc(Cc4ccccc4)cc3)c(C#N)cnc2cn1` [Example 108, 4-[(4-benzylphenyl)amino]-6-{[2-(dimethylamino)ethyl]amino}-1,7-naphthyridine-3-carbonitrile], for which the IC50 is > 10 µM.

On to `CC(C)(C)Nc1c(C#N)cnc2cnc(NCc3cccnc3)cc12` [Example 110, 4-(tert-butylamino)-6-[(pyridin-3-ylmethyl)amino]-1,7-naphthyridine-3-carbonitrile], for which the IC50 was found to be 0.63 µM.

`N#Cc1cnc2cnc(NCc3cccnc3)cc2c1NC1CC1` [Example 111, 4-(cyclopropylamino)-6-[(pyridin-3-ylmethyl)amino]-1,7-naphthyridine-3-carbonitrile] came in with a 50% inhibitory concentration (IC50) of 2.8 µM.

Take `N#Cc1cnc2cnc(NCc3cccnc3)cc2c1NC1CCCC1` [Example 112, 4-(cyclopentylamino)-6-[(pyridin-3-ylmethyl)amino]-1,7-naphthyridine-3-carbonitrile]: the half-maximal inhibitory concentration (IC50) stood at 0.32 µM.

`N#Cc1cnc2cnc(NCc3cccnc3)cc2c1NC1CCCCCC1` [Example 113, 4-(cycloheptylamino)-6-[(pyridin-3-ylmethyl)amino]-1,7-naphthyridine-3-carbonitrile] displayed an IC50 of 0.16 µM.

As to `N#Cc1cnc2cnc(NCc3cccnc3)cc2c1NC1CCCCC1` [Example 114, 4-(cyclohexylamino)-6-[(pyridin-3-ylmethyl)amino]-1,7-naphthyridine-3-carbonitrile], half-maximal inhibition (IC50) required 0.47 µM.

As for `CC(Nc1cc2c(Nc3ccc(F)c(Cl)c3)c(C#N)cnc2cn1)c1ccccc1` (stereo not shown) [Example 115, 4-[(3-chloro-4-fluorophenyl)amino]-6-[(1-phenylethyl)amino]-1,7-naphthyridine-3-carbonitrile], the half-maximal inhibitory concentration (IC50) is > 40 µM.

Take `N#Cc1cnc2cnc(NCc3cccnc3)cc2c1NC1CCNCC1` [Example 116, 4-(piperidin-4-ylamino)-6-[(pyridin-3-ylmethyl)amino]-1,7-naphthyridine-3-carbonitrile]: the 50% inhibitory concentration (IC50) is > 40 µM.

Turning to `N#Cc1cnc2cnc(NCCN3CCN(Cc4ccccc4)CC3)cc2c1Nc1ccc(F)c(Cl)c1` [Example 117, 6-(2-(4-benzylpiperazin-1-yl)ethylamino)-4-(3-chloro-4-fluorophenylamino)-1,7-naphthyridine-3-carbonitrile], inhibition was half-maximal at 2.4 µM (IC50).

Broadly, the IC50 is the concentration that gives 50% inhibition. High values mean weaker potency in that assay, low ones greater potency in that assay.
